# In US12679839B2, “Cyclin-dependent kinase 7 (CDK7) non-covalent inhibitors” (JANSSEN PHARMACEUTICA NV, priority 2020, dated 2026):
# Target: T1, CDK7/Cyclin H/MAT-1 complex (Homo sapiens, UniProt P50613)
# T1 construct: Human CDK7 (amino acids 1-346); His6 (N); TEV protease cleavage site (N); made in house; host or cells: baculovirus-SF9 insect cells
# Assay: Absorbance kinetic assay (20 nM CDK7/Cyclin H/MAT-1 complex)
# Type: biochemical
# Conditions: read-out: CDK7 (20 nM) pIC50 (converted)
# How it was run: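 Trimeric complex (His6-TEV CDK7 1-346, MAT1 1-309, cyclin H 1-323) from Sf9 cells, at 20 nM, phosphorylating RNA Pol II-derived CDK7/9-tide; ADP coupled via PK/LDH to NADH depletion read at 340 nm every 2 min for 8 h. Steady-state slopes gave % inhibition; IC50 from 11-point Hill fit.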
# T1 sequence (P50613 whole entry, the tested form may be a part): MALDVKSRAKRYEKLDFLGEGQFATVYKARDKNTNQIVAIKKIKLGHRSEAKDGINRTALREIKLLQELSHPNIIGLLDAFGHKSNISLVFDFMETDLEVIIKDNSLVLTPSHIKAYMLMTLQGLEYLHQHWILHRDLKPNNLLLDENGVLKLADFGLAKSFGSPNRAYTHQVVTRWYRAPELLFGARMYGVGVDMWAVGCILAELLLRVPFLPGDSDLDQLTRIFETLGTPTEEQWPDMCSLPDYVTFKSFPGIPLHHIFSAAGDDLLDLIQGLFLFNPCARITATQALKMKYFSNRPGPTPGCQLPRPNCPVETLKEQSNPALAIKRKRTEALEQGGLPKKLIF
# T1 sequence (P51946 whole entry partner, the tested form may be a part): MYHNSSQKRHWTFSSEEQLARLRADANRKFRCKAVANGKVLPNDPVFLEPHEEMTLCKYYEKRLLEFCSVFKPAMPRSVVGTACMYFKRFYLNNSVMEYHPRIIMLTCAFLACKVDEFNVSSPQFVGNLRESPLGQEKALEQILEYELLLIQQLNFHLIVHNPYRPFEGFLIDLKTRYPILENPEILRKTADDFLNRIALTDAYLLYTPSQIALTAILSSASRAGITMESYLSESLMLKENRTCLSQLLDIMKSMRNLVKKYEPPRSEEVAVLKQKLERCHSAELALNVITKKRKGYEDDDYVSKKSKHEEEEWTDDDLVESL
# T1 sequence (P51948 whole entry partner, the tested form may be a part): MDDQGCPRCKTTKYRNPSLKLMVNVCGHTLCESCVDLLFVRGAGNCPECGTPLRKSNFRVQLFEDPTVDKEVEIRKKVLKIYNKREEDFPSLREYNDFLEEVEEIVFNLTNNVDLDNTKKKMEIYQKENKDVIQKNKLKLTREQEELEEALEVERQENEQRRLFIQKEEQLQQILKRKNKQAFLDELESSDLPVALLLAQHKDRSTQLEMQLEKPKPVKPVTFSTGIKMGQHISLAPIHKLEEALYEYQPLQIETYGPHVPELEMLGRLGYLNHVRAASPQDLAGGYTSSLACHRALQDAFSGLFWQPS
row,IC50 [µM],SMILES
1,0.126,C[C@H]1CN(C(=O)[C@H]2CCN(C)C[C@@H]2c2ccccc2)[C@@H](C)c2nc(NC3CCOCC3)ncc21 (relative stereo) [Compound 181]
2,< 0.00977,"[2H]C([2H])([2H])N1CC[C@H](C(=O)N2Cc3nc(NCc4ccccc4)ncc3C[C@H]2C)[C@@H](c2ccccc2)C1 (single isomer, unassigned) [Compound 154]"
3,0.0178,CC1CN(C(=O)[C@H]2CCN(C)C[C@@H]2c2ccccc2)Cc2nc(Nc3cnn(C)c3)ncc21 (mixture of isomers) [Compound 194]
4,< 0.00977,C[C@@H]1CN(C(=O)[C@H]2CCN(C)C[C@@H]2c2ccccc2)Cc2nc(NC3CCOCC3)ncc21 (relative stereo) [Compound 188]
5,< 0.00977,"C[C@@H]1Cc2cnc(NC3CCOCC3)nc2[C@H](C)N1C(=O)[C@H]1CCN(C)C[C@@H]1c1ccccc1 (single isomer, unassigned) [Compound 195b]"
6,< 0.00977,"[2H]C([2H])([2H])N1CC[C@@H](C(=O)N2Cc3nc(NCc4ccn(C)n4)ncc3C[C@H]2C)[C@H](c2cccc(C)c2)C1 (single isomer, unassigned) [Compound 148]"
7,0.0178,CN1CC[C@H](C(=O)N2Cc3nc(NC4CCOCC4)ncc3CC2(C)C)[C@@H](c2ccccc2)C1 (relative stereo) [Compound 189]

# Further lines, the compound ahead of its results:
row,SMILES,IC50 [µM]
1,C[C@@H]1Cc2cnc(NCc3ccn(C)n3)nc2CN1C(=O)[C@H]1CCN(C)C[C@@H]1C(F)(F)F (relative stereo) [Compound 143],< 0.00977
2,C[C@@H]1Cc2cnc(N[C@H]3CCCNC3)nc2CN1C(=O)[C@H]1CCN(C)C[C@@H]1C(F)(F)F (relative stereo) [Compound 144],< 0.00977
3,C[C@@H]1Cc2cnc(N[C@@H]3CCC(=O)N(C)C3)nc2CN1C(=O)[C@H]1CCN(C)C[C@@H]1c1ccccc1 (relative stereo) [Compound 6],< 0.00977
4,Cc1cc([C@@H]2CN(C)CC[C@H]2C(=O)N2Cc3nc(NC4CCOCC4)ncc3C[C@H]2C)ccn1 (relative stereo) [Compound 102],0.105
5,C[C@@H]1Cc2cnc(NC3CCOCC3)nc2CN1C(=O)[C@H]1CCN(C)C[C@@H]1C (relative stereo) [Compound 146],0.0115
6,Cc1cccc([C@H]2CN(C)CC[C@@H]2C(=O)N2Cc3nc(NC4CCOCC4)ncc3C[C@H]2C)c1 (relative stereo) [Compound 134],< 0.00977
7,C[C@@H]1Cc2cnc(NC3CCOCC3)nc2CN1C(=O)[C@H]1CCN(C)C[C@@H]1c1cccc(F)c1 (relative stereo) [Compound 133],0.0123
8,CO[C@H]1CC[C@H](Nc2ncc3c(n2)CN(C(=O)[C@@H]2CCN(C)C[C@H]2c2ccnc(C)c2)[C@H](C)C3)CC1 (relative stereo) [Compound 105],< 0.00977
9,Cc1cccc([C@@H]2CN(C)CC[C@H]2C(=O)N2Cc3nc(NCc4ccn(C)n4)ncc3C[C@H]2C)c1 (relative stereo) [Compound 136],0.0115
10,C[C@@H]1Cc2cnc(NCc3ccccc3)nc2CN1C(=O)[C@@H]1CCN(C)C[C@H]1C(F)(F)F (relative stereo) [Compound 141],0.0398
11,C[C@@H]1Cc2cnc(N[C@H]3CCOC(C)(C)C3)nc2CN1C(=O)[C@H]1CCN(C)C[C@@H]1c1ccccc1 (relative stereo) [Compound 39],< 0.02
12,C[C@@H]1Cc2cnc(NC3CCOCC3)nc2CN1C(=O)[C@H]1CCN(C)C[C@@H]1c1ccc(Cl)cc1 (relative stereo) [Compound 132],0.00977
13,C[C@@H]1Cc2cnc(NCc3ccn(C)n3)nc2CN1C(=O)[C@H]1CCN(C)C[C@@H]1c1ccccc1C(F)F (relative stereo) [Compound 139],0.0912
14,C[C@@H]1CN(C)CC[C@H]1C(=O)N1Cc2nc(NC3CCOCC3)ncc2C[C@H]1C (relative stereo) [Compound 145],0.0676
15,C[C@@H]1Cc2cnc(NCc3ccn(C)n3)nc2CN1C(=O)[C@H]1CCN(C)C[C@@H]1c1cccc(C(F)(F)F)c1 (relative stereo) [Compound 129],0.0117
